Results from US8680269B2, “Pesticidal compositions” (Dow AgroSciences, LLC., priority 2009, dated 2014).

Legend:
Type in all cases: in vivo
[1] = test system: green peach aphid (Myzus persicae); test: Insecticidal test for green peach aphid in foliar spray assay; conditions: 72 h, 200 ppm foliar spray on cabbage seedlings, graded after three days, Abbott corrected % control, read-out: Mortality GPA 200 ppm
How it was run: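 Cabbage seedlings infested with 20-50 wingless adult and nymph aphids a day before treatment were sprayed to runoff at 200 ppm (0.025% Tween 20 diluent), four pots per treatment. After three days at about 25 °C and 40% RH, live aphids were counted and % control derived by Abbott's correction against solvent-sprayed plants.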

[2] = test system: beet armyworm (BAW; Spodoptera exigua); test: Insecticidal test for beet armyworm, 128-well diet tray assay; conditions: 144 h, 50 μg/cm2 on artificial diet, second instar larvae, six days at 25° C.
How it was run: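 Second-instar larvae, three to five per well, fed on artificial diet surface-treated with 50 μg/cm^2 compound (applied in 90:10 acetone-water, dried). Held 6 days at 25 °C, 14:10 light-dark; percent mortality scored per well and averaged over eight wells.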

[3] = test system: corn earworm (CEW; Helicoverpa zea); test: Insecticidal test for corn earworm, 128-well diet tray assay; conditions: 144 h, 50 μg/cm2 on artificial diet, second instar larvae, six days at 25° C.
How it was run: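 Second-instar H. zea larvae, three to five per well, on artificial diet surface-treated with 50 μg/cm^2 compound (90:10 acetone-water, dried), eight wells per compound. Held 6 days at 25° C, 14:10 light-dark; percent mortality averaged over wells.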

Row | Structure (SMILES) | mortality at 200 ppm [1] [%] | mortality at 50 µg/cm2 [2] [%] | mortality at 50 µg/cm2 [3] [%]
1 | FC(F)(F)Oc1ccc(-n2cnc(-c3ccc(/C=N/NC(=S)Nc4ccc(Cl)cn4)cc3)n2)cc1 [Compound 59] | < 80 | < 50 | < 50
2 | FC(F)(F)c1ccc(-c2cn(-c3ccc(/C=N/NC(=S)Nc4c(Cl)cccc4Cl)cc3)cn2)cc1 [Compound 70] | < 80 | 50 to 100 | 50 to 100
3 | FC(F)(F)Oc1ccc(-n2cnc(-c3ccc(/C=N/NC(=S)NCCc4ccccn4)cc3)n2)cc1 [Compound 6] | < 80 | 50 to 100 | 50 to 100
4 | COc1ccc(NC(=S)N/N=C(\C)c2ccc(-c3ncn(-c4ccc(OC(F)(F)F)cc4)n3)cc2)c(C)c1 [Compound 109] | < 80 | 50 to 100 | 50 to 100
5 | COc1cc(C)c(NC(=S)N/N=C/c2ccc(-c3ncn(-c4ccc(OC(F)(F)F)cc4)n3)cc2)c(C)n1 [Compound 129] | < 80 | 50 to 100 | 50 to 100
6 | FC(F)(F)C(F)(F)Oc1ccc(-n2cnc(-c3ccc(/C=N/NC(=S)NCCc4ccccn4)cc3)n2)cc1 [Compound 9] | < 80 | 50 to 100 | 50 to 100
7 | CCCCCNC(=S)N/N=C/c1ccc(-c2ncn(-c3ccc(OC(F)(F)F)cc3)n2)cc1 [Compound 24] | < 80 | 50 to 100 | < 50
8 | O=C(c1ccccc1NC(=S)N/N=C/c1ccc(-c2ncn(-c3ccc(OC(F)(F)F)cc3)n2)cc1)C(F)(F)F [Compound 61] | < 80 | 50 to 100 | 50 to 100
9 | CCOc1ccc(NC(=S)N/N=C/c2ccc(-c3ncn(-c4ccc(OC(F)(F)F)cc4)n3)cc2)cc1 [Compound 58] | < 80 | 50 to 100 | 50 to 100
10 | COCCNC(=S)N/N=C/c1ccc(-c2ncn(-c3ccc(OC(F)(F)F)cc3)n2)cc1 [Compound 18] | < 80 | 50 to 100 | 50 to 100
